Laboratory results reported in patent publication US20220362386A1, “LIQUID COMPOSITIONS COMPRISING A LEVODOPA AMINO ACID CONJUGATE AND USES THEREOF” (NeuroDerm, Ltd., priority 2019, published 2022).
Where a name gives a salt, the structure may show the parent alone. Non-standard residues stand in square brackets, D forms with d. Residues, ends and D or L forms follow the SMILES beside them. Dopa = N[C@@H](Cc1ccc(O)c(O)c1)C(=O)O

Experiments:
[1] = Stability observation of the solubility solutions at 25° C. (visual inspection for precipitants); type: physicochemical; conditions: 0.75% CD solution
Procedure: The volume of the solution in the bottle was adjusted to 5 ml, either by adding solvent, or be removing any residual solution, after which the bottle was tightly closed and left at 25° C. for stability observation. […] It is further noted that throughout this document, unless mentioned otherwise, the stability was measured using the manual visual inspection Bosch apparatus MIH DX, at a magnification of ×1.75.

[2] = LD-Arg, LD-Lys and LD-Tyr formulations of Experimental Example 12, physical stability (Tables 35-41); type: physicochemical; conditions: for Physical Stability: room temperature overnight
Procedure: Formulations as described in the tables below were prepared by adding a CD solution and dissolving all ingredients together. The CD for the LD-Arg formulation was prepared as follows: WFI was added to a bottle, after which Tween® 80 and sodium bisulfite were added, stirred to dissolution, and heated to 60° C. CD was added, stirred for 1-2 minutes to achieve homogenization. Finally, L-Arginine was added, the bottle was flushed with nitrogen, tightly closed and stirred 15 min. Dissolution was verified and the preparation was allowed to cool to ambient temperature. The pH was measured, and the preparation was transferred to a measurement bottle, where the volume was completed to the predefined final volume by adding WFI. The preparation was then filtered through sterile 0.22 μm nylon filter, transferred to 20 ml vials, after which nitrogen was purged into the headspace and the vials were frozen at −20° C. until use.
The CD solution for the LD-Tyr and LD-Lys formulations was prepared as follows: WFI was added to a bottle. Tween® 80 and sodium bisulfite were added, stirred to dissolution and heated to 60° C. CD was added, and stirred for 1-2 minutes to achieve homogenization. NaOH was added, after which the bottle was washed with nitrogen, closed tightly and stirred for 15 minutes. Dissolution was verified and the preparation was allowed to cool to ambient temperature. The pH was measured, and preparation was transferred to a measurement bottle, in which the volume was completed to final predefined volume by adding WFI. The preparation was then filtered through a sterile 0.22 μm nylon filter, transferred to 20 ml vials, after which nitrogen was purged into headspace and the vials were frozen at −20° C. until use.

[3] = t = 12 days, LD-Tyr 37.0%, CD 0.75%, L-Arginine 6.00, NaOH 0, TRIS 13, pH 8.14
[4] = t = 14 days, LD-Tyr 44.0%, CD 0.75%, L-Arginine 25.70, NaOH 0, TRIS 0, pH 8.34
[5] = t = 26 days, LD-Tyr 37.0%, CD 0.75%, L-Arginine 6.00, NaOH 0, TRIS 12.124, pH 8.12
[6] = t = 26 days, LD-Tyr 44.0%, CD 0.75%, L-Arginine 6.76, NaOH 0, TRIS 13.726, pH 8.08

## NCCCC[C@H](NC(=O)[C@@H](N)Cc1ccc(O)c(O)c1)C(=O)O [LD-Lys TFA salt, Levodopa Lysine TFA Salt] (H-[Dopa]-Lys-OH)
[1]; pH 6.5, 250 mg/ml salt
  Stability: Precipitated* (precipitated within 12 hours)
[1]; pH 7.4, 250 mg/ml salt
  Stability: Precipitated* (precipitated within 12 hours)

## N[C@@H](Cc1ccc(O)c(O)c1)C(=O)N[C@@H](Cc1ccc(O)cc1)C(=O)O [LD-Tyr TFA salt, Levodopa Tyrosine TFA Salt] (H-[Dopa]-Tyr-OH)
[2]; LD-Tyr 20%, Arg 0%, TRIS 8.8%, pH 7.94, molar ratio 1:1.20
  Physical Stability: Precipitated
[2]; LD-Tyr 30%, Arg 4.5%, TRIS 9.72%, pH 8.00, molar ratio 1:1.20
  Physical Stability: Stable
[2]; LD-Tyr 37%, Arg 5.8%, TRIS 11.7%, pH 8.12, molar ratio 1:1.32
  Physical Stability: Stable
[2]; LD-Tyr 44%, Arg 6.8%, TRIS 13.8%, pH 8.02, molar ratio 1:1.20
  Physical Stability: Stable
[2]; LD-Tyr 44%, Arg 7.33%, TRIS 14.9%, pH 8.08, molar ratio 1:1.30
  Physical Stability: Stable
[2]; t = 1 days, LD-Tyr 44.0%, CD 0%, L-Arginine 21.4, NaOH 0.60, TRIS 0, pH 8.29
  Appearance, 25° C.: Stable
[2]; t = 1 days, LD-Tyr 44.0%, CD 0.75%, L-Arginine 6.27, NaOH 0, TRIS 12.69, pH 8.02
  Appearance, Refrigerated (2-8° C.): Stable
[2]; t = 3 days, LD-Tyr 44.0%, CD 0.75%, L-Arginine 6.27, NaOH 0, TRIS 12.69, pH 8.02
  Appearance, 25° C.: Stable
[2]; t = 7 days, LD-Tyr 44.0%, CD 0.75%, L-Arginine 8.00, NaOH 0, TRIS 15, pH 8.15
  Appearance, Refrigerated (2-8° C.): Stable
[2]; [3]
  Appearance, 25° C.: Stable
  Appearance, Refrigerated (2-8° C.): Stable
[2]; t = 12 days, LD-Tyr 44.0%, CD 0.75%, L-Arginine 21.4, NaOH 0.60, TRIS 0, pH 8.29
  Appearance, 25° C.: Stable
[2]; t = 14 days, LD-Tyr 44.0%, CD 0.75%, L-Arginine 8.00, NaOH 0, TRIS 15, pH 8.15
  Appearance, 25° C.: Stable
[2]; [4]
  Appearance, 25° C.: Stable
  Appearance, Refrigerated (2-8° C.): Stable
[2]; t = 24 days, LD-Tyr 44.0%, CD 0.75%, L-Arginine 21.86, NaOH 0.60, TRIS 0, pH 8.57
  Appearance, 25° C.: Stable
[2]; [5]
  Appearance, 25° C.: Stable
  Appearance, Refrigerated (2-8° C.): Stable
[2]; [6]
  Appearance, 25° C.: Stable
  Appearance, Refrigerated (2-8° C.): Stable
[2]; t = 27 days, LD-Tyr 44.0%, CD 0.75%, L-Arginine 25.72, NaOH 0, TRIS 0, pH 8.43
  Appearance, 25° C.: Stable
[2]; t = 44 days, LD-Tyr 30.0%, CD 0.75%, L-Arginine 7.00, NaOH 0, TRIS 10.5, pH 8.23
  Appearance, Refrigerated (2-8° C.): precipitated
[2]; t = 50 days, LD-Tyr 30.0%, CD 0.75%, L-Arginine 18.10, NaOH 0, TRIS 0, pH 8.36
  Appearance, Refrigerated (2-8° C.): Stable
[2]; t = 56 days, LD-Tyr 44.0%, CD 0.75%, L-Arginine 21.86, NaOH 0.60, TRIS 0, pH 8.57
  Appearance, Refrigerated (2-8° C.): Stable
[2]; t = 70 days, LD-Tyr 38.0%, CD 0%, L-Arginine 21.90, NaOH 0, TRIS 0, pH 8.43
  Appearance, 25° C.: Stable
[2]; t = 70 days, LD-Tyr 44.0%, CD 0.75%, L-Arginine 25.72, NaOH 0, TRIS 0, pH 8.43
  Appearance, Refrigerated (2-8° C.): Stable
